In PMC3838380, “Investigating the Allosteric Regulation of YfiN from Pseudomonas aeruginosa: Clues from the Structure of the Catalytic Domain” (PLoS ONE, 2013):

Assays:
YfiNHAMP-GGDEF = target: T1, YfiNHAMP-GGDEF (Pseudomonas aeruginosa, UniProt Q9I4L5); test: isothermal titration calorimetry; type: binding
T1 construct: gene tpbB; cytosolic HAMP-GGDEF portion, residues 183-435, C-terminal His-tag (pET24b), synthetic gene, E. coli BL21(DE3), about 28 kDa, monomeric by AUC
Excerpt: isothermal titration calorimetry on YfiNHAMP-GGDEF

YfiNGGDEF = target: T2, YfiNGGDEF (Pseudomonas aeruginosa, UniProt Q9I4L5); test: isothermal titration calorimetry; type: binding
T2 construct: gene tpbB
T2 sequence (Q9I4L5 232-435): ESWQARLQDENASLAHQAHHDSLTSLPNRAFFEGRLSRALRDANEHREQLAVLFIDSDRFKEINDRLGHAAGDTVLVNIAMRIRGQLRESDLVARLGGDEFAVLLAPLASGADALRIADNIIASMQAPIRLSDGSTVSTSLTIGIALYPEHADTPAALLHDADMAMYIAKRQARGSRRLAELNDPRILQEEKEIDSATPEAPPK
Excerpt: isothermal titration calorimetry on YfiNGGDEF

T1 sequence (Q9I4L5 183-435): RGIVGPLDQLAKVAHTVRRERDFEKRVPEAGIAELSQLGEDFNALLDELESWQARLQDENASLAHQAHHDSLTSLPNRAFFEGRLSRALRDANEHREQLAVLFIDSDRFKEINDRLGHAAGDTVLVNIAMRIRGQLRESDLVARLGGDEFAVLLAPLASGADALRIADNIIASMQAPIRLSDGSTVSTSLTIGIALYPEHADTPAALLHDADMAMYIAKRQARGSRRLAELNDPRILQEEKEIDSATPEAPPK

SMILES: Nc1nc2c(ncn2[C@@H]2O[C@H](COP(=O)(O)OP(=O)(O)OP(=O)(O)O)[C@@H](O)[C@H]2O)c(=O)[nH]1 [GTP]
- Kd (YfiNHAMP-GGDEF): 0.18 µM
- Kd (YfiNGGDEF): 0.067 µM
